# From US5112858A, “Antibiotic, aranorosin, a microbiological process for the preparation thereof, and the use thereof as a pharmaceutical” (Hoechst Aktiengesellschaft, priority 1988, dated 1992)
# Columns and labels:
# [1] = test system: Staphylococcus aureus 285; assay: MIC against bacteria and fungi (Table I); type: cell-based; conditions: read-out: Minimum inhibitory concentration (MIC)
# Text: (§1) The minimum inhibitory concentrations of the new antibiotic aranorosin required to inhibit various strains of bacteria and fungi are listed in Table I.
# Sarcina lutea = assay: MIC against bacteria and fungi (Table I); type: cell-based; conditions: Micrococcus luteus, read-out: Minimum inhibitory concentration (MIC)
# Text: as §1
# Aspergillus niger = assay: MIC against bacteria and fungi (Table I); type: cell-based; conditions: read-out: Minimum inhibitory concentration (MIC)
# Text: as §1
# Bacillus subtilis = assay: MIC against bacteria and fungi (Table I); type: cell-based; conditions: read-out: Minimum inhibitory concentration (MIC)
# Text: as §1
# Salmonella typhimurium = assay: MIC against bacteria and fungi (Table I); type: cell-based; conditions: Salmonella enterica, read-out: Minimum inhibitory concentration (MIC)
# Text: as §1
# E. coli TEM = assay: MIC against bacteria and fungi (Table I); type: cell-based; conditions: Escherichia coli, read-out: Minimum inhibitory concentration (MIC)
# Text: as §1
# [2] = test system: Pseudomonas aeruginosa 1771 M; assay: MIC against bacteria and fungi (Table I); type: cell-based; conditions: read-out: Minimum inhibitory concentration (MIC)
# Text: as §1
# [3] = test system: Staphylococcus aureus SG 511; assay: MIC against bacteria and fungi (Table I); type: cell-based; conditions: SG511, read-out: Minimum inhibitory concentration (MIC)
# Text: as §1
# [4] = test system: Klebsiella aerogenes 1082 E; assay: MIC against bacteria and fungi (Table I); type: cell-based; conditions: read-out: Minimum inhibitory concentration (MIC)
# Text: as §1
# [5] = test system: Enterobacter cloacae P 99; assay: MIC against bacteria and fungi (Table I); type: cell-based; conditions: P99, read-out: Minimum inhibitory concentration (MIC)
# Text: as §1
# E. coli DC 2 = assay: MIC against bacteria and fungi (Table I); type: cell-based; conditions: Escherichia coli, DC2, read-out: Minimum inhibitory concentration (MIC)
# Text: as §1
# E. coli Ese 2231 = assay: MIC against bacteria and fungi (Table I); type: cell-based; conditions: Escherichia coli, ESE2231, read-out: Minimum inhibitory concentration (MIC)
# Text: as §1
# [6] = test system: Pseudomonas aeruginosa 1592 E; assay: MIC against bacteria and fungi (Table I); type: cell-based; conditions: read-out: Minimum inhibitory concentration (MIC)
# Text: as §1
# Streptococcus faecalis = assay: MIC against bacteria and fungi (Table I); type: cell-based; conditions: Enterococcus faecalis, read-out: Minimum inhibitory concentration (MIC)
# Text: as §1
# [7] = test system: Staphylococcus aureus 503; assay: MIC against bacteria and fungi (Table I); type: cell-based; conditions: read-out: Minimum inhibitory concentration (MIC)
# Text: as §1
# [8] = test system: Staphylococcus aureus 20204; assay: MIC against bacteria and fungi (Table I); type: cell-based; conditions: read-out: Minimum inhibitory concentration (MIC)
# Text: as §1
# [9] = test system: Enterobacter cloacae 1321 E; assay: MIC against bacteria and fungi (Table I); type: cell-based; conditions: read-out: Minimum inhibitory concentration (MIC)
# Text: as §1
# [10] = test system: Klebsiella aerogenes 1522 E; assay: MIC against bacteria and fungi (Table I); type: cell-based; conditions: read-out: Minimum inhibitory concentration (MIC)
# Text: as §1
# [11] = test system: Staphylococcus aureus 209 P; assay: MIC against bacteria and fungi (Table I); type: cell-based; conditions: read-out: Minimum inhibitory concentration (MIC)
# Text: as §1
# [12] = test system: Pseudomonas aeruginosa 1771; assay: MIC against bacteria and fungi (Table I); type: cell-based; conditions: read-out: Minimum inhibitory concentration (MIC)
# Text: as §1
# [13] = test system: Pseudomonas aeruginosa ATCC 9027; assay: MIC against bacteria and fungi (Table I); type: cell-based; conditions: ATCC9027, read-out: Minimum inhibitory concentration (MIC)
# Text: as §1
# Candida albicans = assay: MIC against bacteria and fungi (Table I); type: cell-based; conditions: read-out: Minimum inhibitory concentration (MIC)
# Text: as §1
# [14] = test system: Streptococcus pyogenes 308A; assay: MIC against bacteria and fungi (Table I); type: cell-based; conditions: read-out: Minimum inhibitory concentration (MIC)
# Text: as §1
# Microspora gypseum = assay: MIC against bacteria and fungi (Table I); type: cell-based; conditions: read-out: Minimum inhibitory concentration (MIC)
# Text: as §1
# Penicillium italicum = assay: MIC against bacteria and fungi (Table I); type: cell-based; conditions: read-out: Minimum inhibitory concentration (MIC)
# Text: as §1
# Saccaromyces cerevisiae = assay: MIC against bacteria and fungi (Table I); type: cell-based; conditions: read-out: Minimum inhibitory concentration (MIC)
# Text: as §1
# Botrytis cinerea = assay: MIC against bacteria and fungi (Table I); type: cell-based; conditions: read-out: Minimum inhibitory concentration (MIC)
# Text: as §1
# Cercospora beticola = assay: MIC against bacteria and fungi (Table I); type: cell-based; conditions: read-out: Minimum inhibitory concentration (MIC)
# Text: as §1
# [15] = test system: Staphylococcus aureus R 85; assay: MIC against bacteria and fungi (Table I); type: cell-based; conditions: R85, read-out: Minimum inhibitory concentration (MIC)
# Text: as §1
# E. coli 1507 E = assay: MIC against bacteria and fungi (Table I); type: cell-based; conditions: Escherichia coli, read-out: Minimum inhibitory concentration (MIC)
# Text: as §1
# E. coli DC O = assay: MIC against bacteria and fungi (Table I); type: cell-based; conditions: Escherichia coli, read-out: Minimum inhibitory concentration (MIC)
# Text: as §1
# E. coli 055 = assay: MIC against bacteria and fungi (Table I); type: cell-based; conditions: Escherichia coli, read-out: Minimum inhibitory concentration (MIC)
# Text: as §1
# [16] = test system: Streptococcus pyogenes 77 A; assay: MIC against bacteria and fungi (Table I); type: cell-based; conditions: read-out: Minimum inhibitory concentration (MIC)
# Text: as §1
# [17] = test system: Gram-positive and Gram-negative bacteria as well as yeasts and filamentous fungi; assay: Antibacterial and antifungal activity (summary statement); type: cell-based
# Text: as §1
# [18] = test system: malignant tumors and leukemias; assay: Cytostatic activity (statement); type: cell-based; conditions: general statement, no data given
# Solubility = type: physicochemical
smiles,measurement,setting,value
CCCCCCC(C)/C=C(C)/C=C/C(=O)NC1CC2(OC1O)C1OC1C(=O)C1OC12 (stereo not shown) [aranorosin],MIC,[1],0.78 µg/mL
same,MIC,Sarcina lutea,1.5 µg/mL
same,MIC,Aspergillus niger,7.5 µg/mL
same,MIC,Bacillus subtilis,1.5 µg/mL
same,MIC,Salmonella typhimurium,50 µg/mL
same,MIC,E. coli TEM,100 µg/mL
same,MIC,[2],50 µg/mL
same,MIC,[3],0.78 µg/mL
same,MIC,[4],50 µg/mL
same,MIC,[5],100 µg/mL
same,MIC,E. coli DC 2,25 µg/mL
same,MIC,E. coli Ese 2231,> 200 µg/mL
same,MIC,[6],> 100 µg/mL
same,MIC,Streptococcus faecalis,3 µg/mL
same,MIC,[7],0.78 µg/mL
same,MIC,[8],1.5 µg/mL
same,MIC,[9],100 µg/mL
same,MIC,[10],100 µg/mL
same,MIC,[11],1.5 µg/mL
same,MIC,[12],> 100 µg/mL
same,MIC,[13],> 100 µg/mL
same,MIC,Candida albicans,30 µg/mL
same,MIC,[14],0.78 µg/mL
same,MIC,Microspora gypseum,3 µg/mL
same,MIC,Penicillium italicum,30 µg/mL
same,MIC,Saccaromyces cerevisiae,500 µg/mL
same,MIC,Botrytis cinerea,30 µg/mL
same,MIC,Cercospora beticola,3 µg/mL
same,MIC,[15],1.5 µg/mL
same,MIC,E. coli 1507 E,100 µg/mL
same,MIC,E. coli DC O,100 µg/mL
same,MIC,E. coli 055,100 µg/mL
same,MIC,[16],0.78 µg/mL
same,"effectiveness against bacteria, yeasts and filamentous fungi",[17]; conclusion from Table I,effective against Gram-positive and Gram-negative bacteria as well as yeasts and filamentous fungi
same,bactericidal and fungicidal properties,[17]; general statement,has bactericidal and fungicidal properties
same,cytostatic properties,[18],has cytostatic properties
same,Solubility,Solubility; in benzene,sparingly soluble
same,Solubility,"Solubility; in diethyl ether, chloroform, acetone, ethyl acetate, dimethyl sulfoxide and methanol",soluble
same,Solubility,Solubility; in petroleum ether,Insoluble
same,Solubility,Solubility; in water,Insoluble
